According to patent US8361487B1, “Ant controllers and method for application thereof” (BASF Aktiengesellschaft, priority 1999, dated 2013):

Key:
[1] = test system: fireant (Solenopsis geminata); experiment: Test Example 2: drench treatment of fireant nests; assay type: in vivo; set-up: key: A: Nest is completely destructed or activity of the nest is extremely low.; B: Activity of the nest is exhibited.; C: High activity of the nest is exhibited.; D: Activity of the nest is extremely high; settings: 1 g of the active ingredient per one nest, 14 days after the treatment
Protocol: The ant controller of the present invention was applied to nests (anthill) of fireant (Solenopsis geminata) with drench treatment, in terms of 1 g of the active ingredient per one nest. 14 Days after the treatment of the ant controller, the activity of the nests was evaluated according to the following criterion. The test was carried out with one block per one nest.

[2] = test system: Coptotermes formosanus Shiraki; experiment: Test Example 1: termite-killing test on treated filter paper; assay type: in vivo; settings: mortality class; 1 ml of a 500 ppm solution on filter paper, seven days after inoculation, triplicate group of 10 insects
Protocol: A filter paper was spread in a glass dish having a diameter of 9 cm, onto which was dropped 1 ml of a 500 ppm solution of the ant controller of the present invention. Then, the filter paper was inoculated with Coptotermes formosanus Shiraki. Seven days after the inoculation, percentage of dead insects was investigated, from which mortality was calculated. The test was carried out with triplicate group of 10 insects.

| SMILES | activity of the nests (effect) [1] | Termite-killing effect [2] |
| --- | --- | --- |
| N#Cc1ccc(CC(=NNC(=O)Nc2ccc(OC(F)(F)F)cc2)c2cccc(C(F)(F)F)c2)cc1 [Compound 44] | A | C (89-80) |
| N#Cc1ccc(CC(NNC(=O)Nc2ccc(OC(F)(F)F)cc2)c2cccc(C(F)(F)F)c2)cc1 (stereo not drawn) [Compound 96] | A | A (100) |
| N#Cc1ccc(CN(NCC(=O)Nc2ccc(Cl)cc2)c2cccc(Cl)c2)cc1 [Compound 151] | – | C (89-80) |
| N#Cc1ccc(CN(NCC(=O)Nc2ccc(OC(F)(F)F)cc2)c2cccc(Cl)c2)cc1 [Compound 152] | – | B (99-90) |
| N#Cc1ccc(CN(NCC(=O)Nc2ccc(Cl)cc2)c2cccc(F)c2)cc1 [Compound 153] | – | A (100) |
| N#Cc1ccc(CN(NCC(=O)Nc2ccc(OC(F)(F)F)cc2)c2cccc(F)c2)cc1 [Compound 154] | – | B (99-90) |
| Cc1cccc(N(Cc2ccc(C#N)cc2)NCC(=O)Nc2ccc(Cl)cc2)c1 [Compound 155] | – | A (100) |
| Cc1cccc(N(Cc2ccc(C#N)cc2)NCC(=O)Nc2ccc(OC(F)(F)F)cc2)c1 [Compound 156] | – | B (99-90) |
| N#Cc1ccc(CN(NCC(=O)Nc2ccc(Cl)cc2)c2cccc(C(F)(F)F)c2)cc1 [Compound 157] | – | A (100) |
| N#Cc1ccc(CN(NCC(=O)Nc2ccc(OC(F)(F)F)cc2)c2cccc(C(F)(F)F)c2)cc1 [Compound 158] | – | C (89-80) |
